Results as given in publication PMC7971076 (Bioorganic & medicinal chemistry letters, 2015).

Columns and labels:
[1] = system: diheteromeric NMDA receptors (GluN1 with GluN2A–D); assay: Two electrode voltage clamp, statements across the diheteromeric NMDA receptors; type: cell-based, rat; details: for decrease in potency: relative to parent analogues (1/14)
[2] = system: cultured primary hippocampal neurons; assay: Neuroprotection against NMDA-induced excitotoxicity, LDH release; type: cell-based; details: 100 µM NMDA plus 30 µM glycine 1 h; LDH 20–24 h after; 30 µM 4, 10 µM (+)MK-801
[3] = molecular target: GluN1/GluN2D NMDA receptor (Rattus norvegicus, UniProt P35439+Q62645); type: cell-based; details: compared to screening hit 1
GluN1/GluN2D NMDA receptor, sequence (Q62645 28-1323, other chains not shown): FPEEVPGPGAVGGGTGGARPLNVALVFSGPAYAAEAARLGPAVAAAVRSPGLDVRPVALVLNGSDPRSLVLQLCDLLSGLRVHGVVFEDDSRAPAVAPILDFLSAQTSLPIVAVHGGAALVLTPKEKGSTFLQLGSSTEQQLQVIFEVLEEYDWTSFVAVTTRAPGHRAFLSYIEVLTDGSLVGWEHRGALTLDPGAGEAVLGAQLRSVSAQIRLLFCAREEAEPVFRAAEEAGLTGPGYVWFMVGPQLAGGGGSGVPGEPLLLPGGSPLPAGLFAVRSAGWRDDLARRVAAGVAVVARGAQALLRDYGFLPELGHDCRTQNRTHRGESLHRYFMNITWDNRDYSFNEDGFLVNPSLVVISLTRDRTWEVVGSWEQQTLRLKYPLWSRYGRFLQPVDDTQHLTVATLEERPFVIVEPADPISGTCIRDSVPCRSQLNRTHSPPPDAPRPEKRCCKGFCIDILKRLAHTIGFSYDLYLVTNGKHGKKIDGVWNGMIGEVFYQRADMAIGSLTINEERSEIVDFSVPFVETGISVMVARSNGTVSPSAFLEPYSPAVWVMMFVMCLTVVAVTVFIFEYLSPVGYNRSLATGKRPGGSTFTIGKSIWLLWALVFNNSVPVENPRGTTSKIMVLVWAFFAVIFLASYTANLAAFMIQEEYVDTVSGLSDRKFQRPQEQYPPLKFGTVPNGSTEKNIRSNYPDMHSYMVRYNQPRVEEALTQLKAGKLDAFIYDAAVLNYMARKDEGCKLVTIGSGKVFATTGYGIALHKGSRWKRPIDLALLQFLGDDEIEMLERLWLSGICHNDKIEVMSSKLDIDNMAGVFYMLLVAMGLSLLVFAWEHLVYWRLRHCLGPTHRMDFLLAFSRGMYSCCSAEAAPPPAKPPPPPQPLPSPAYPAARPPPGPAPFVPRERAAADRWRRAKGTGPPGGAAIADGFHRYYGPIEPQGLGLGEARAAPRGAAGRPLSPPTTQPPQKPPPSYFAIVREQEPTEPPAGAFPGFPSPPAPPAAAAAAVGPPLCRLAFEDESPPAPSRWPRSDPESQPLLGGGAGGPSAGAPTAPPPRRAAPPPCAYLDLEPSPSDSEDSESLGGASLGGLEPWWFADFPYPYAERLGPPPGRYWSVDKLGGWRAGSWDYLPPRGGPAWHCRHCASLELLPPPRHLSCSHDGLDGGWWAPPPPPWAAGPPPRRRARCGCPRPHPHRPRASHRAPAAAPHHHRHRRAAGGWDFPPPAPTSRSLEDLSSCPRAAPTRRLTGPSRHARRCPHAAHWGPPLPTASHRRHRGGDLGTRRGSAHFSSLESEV

[4] = molecular target: GluN1/GluN2C NMDA receptor (Rattus norvegicus, UniProt P35439+Q00961); type: cell-based; details: 3 µM compound, absence of Mg2+, n = 5
GluN1/GluN2C NMDA receptor, sequence (Q00961 20-1237, other chains not shown): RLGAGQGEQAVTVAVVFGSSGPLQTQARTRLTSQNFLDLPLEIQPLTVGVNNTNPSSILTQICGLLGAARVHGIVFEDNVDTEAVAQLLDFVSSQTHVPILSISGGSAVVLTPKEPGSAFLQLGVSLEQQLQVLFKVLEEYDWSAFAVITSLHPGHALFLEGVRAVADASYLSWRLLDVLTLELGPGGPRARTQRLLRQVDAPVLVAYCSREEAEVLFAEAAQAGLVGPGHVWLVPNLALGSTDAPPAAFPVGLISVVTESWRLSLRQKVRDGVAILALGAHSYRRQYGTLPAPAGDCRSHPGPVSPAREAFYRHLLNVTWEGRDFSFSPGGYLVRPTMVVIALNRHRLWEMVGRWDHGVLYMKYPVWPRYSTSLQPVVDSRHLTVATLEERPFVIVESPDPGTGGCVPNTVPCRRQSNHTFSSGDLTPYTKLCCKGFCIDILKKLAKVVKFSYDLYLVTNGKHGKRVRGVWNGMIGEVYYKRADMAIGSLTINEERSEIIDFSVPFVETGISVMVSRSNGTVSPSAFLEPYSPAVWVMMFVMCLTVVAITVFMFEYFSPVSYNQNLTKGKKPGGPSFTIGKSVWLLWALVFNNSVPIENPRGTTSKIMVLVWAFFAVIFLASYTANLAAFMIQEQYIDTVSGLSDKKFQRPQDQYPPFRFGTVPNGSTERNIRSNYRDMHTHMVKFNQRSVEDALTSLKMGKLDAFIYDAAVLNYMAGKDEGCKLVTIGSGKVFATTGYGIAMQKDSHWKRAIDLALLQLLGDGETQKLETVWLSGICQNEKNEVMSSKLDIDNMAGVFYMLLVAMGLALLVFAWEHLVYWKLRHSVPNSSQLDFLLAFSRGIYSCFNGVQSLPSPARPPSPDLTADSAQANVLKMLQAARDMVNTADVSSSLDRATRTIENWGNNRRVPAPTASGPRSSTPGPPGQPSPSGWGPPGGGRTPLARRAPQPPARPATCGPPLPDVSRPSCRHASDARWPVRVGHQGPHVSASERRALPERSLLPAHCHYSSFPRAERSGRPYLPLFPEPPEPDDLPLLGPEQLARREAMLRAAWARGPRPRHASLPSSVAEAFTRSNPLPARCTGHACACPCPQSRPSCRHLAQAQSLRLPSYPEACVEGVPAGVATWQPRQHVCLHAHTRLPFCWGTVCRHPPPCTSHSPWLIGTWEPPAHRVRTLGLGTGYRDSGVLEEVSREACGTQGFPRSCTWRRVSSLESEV

[5] = Stability of enantiomers separated by chiral semi-preparative HPLC; type: physicochemical; details: after chiral semi-preparative HPLC

## COC(=O)c1ccsc1NC(=O)CC1SC(=N)NC1=O (centres unmarked) [Compound 19]
[1]
  decrease in potency: over 10 fold

## C[C@]12N[C@H](Cc3ccccc31)c1ccccc12 [(+)MK-801, reference compound]
[2]
  NMDA/glycine-induced cell death (supernatant LDH): able to attenuate

## CCOC(=O)c1c(NC(=O)CC2SC(=O)NC2=O)sc2c1CCC2 (centres unmarked) [Compound 24]
[1]
  activity at NMDA receptor subtypes: abolished activity

## CCOC(=O)c1c(NC(=O)CC2SC(=N)NC2=O)sc2c1CCCC2 (centres unmarked) [Compound 5]
[3]
  increase in potency at GluN2D-containing receptors: 3 fold

## COC(=O)c1c(NC(=O)CC2SC(N)=NC2=O)sc2c1CCC(C)C2 (centres unmarked) [Compound 22]
[1]
  IC50 values for all NMDA receptor subunits: submicromolar

## CCOC(=O)c1c(NC(=O)CC2SC(=O)NC2=O)sc2c1CCCC2 (centres unmarked) [Compound 25]
[1]
  activity at NMDA receptor subtypes: abolished activity

## CCOC(=O)c1cc(C)sc1NC(=O)CC1SC(=N)NC1=O (centres unmarked) [Compound 15]
[1]
  decrease in potency: > 4 fold

## CCOC(=O)c1c(NC(=O)CC2NC(=O)NC2=O)sc2c1CCCC2 (centres unmarked) [Compound 27]
[1]
  activity at NMDA receptor subtypes: abrogated activity

## N#Cc1c(NC(=O)CC2SC(=N)NC2=O)sc2c1CCCC2 (centres unmarked) [Compound 21]
[1]
  maximal inhibition: 60%

## N=C1NC(=O)C(CC(=O)Nc2sc3c(c2C(=O)O)CCCC3)S1 (centres unmarked) [Compound 13]
[1]
  activity at NMDA receptor subtypes: loss of activity

## CCOC(=O)c1c(NC(=O)CC2SC(N)=NC2=O)sc2c1CCC(C)C2 (centres unmarked) [Compound 4]
[1]
  improved activity compared to unsubstituted counterpart 5: ~ 2 fold
[1]; 5 µM compound
  mechanism: inhibition with 10-fold increase in glutamate (1000 µM) or glycine (300 µM): could not be surmounted
[1]; separate experiments, n = 4–6
  inhibition at saturating concentrations against all GluN2 subunits: 73–81%
[2]
  NMDA/glycine-induced cell death (supernatant LDH): reduced significantly
[4]
  degree of inhibition at membrane potentials between ‒60 and +60 mV: the same at all voltages tested

## CCOC(=O)c1c(NC(=O)CC2SC(=N)NC2=O)sc2c1CCC(F)(F)C2 (centres unmarked) [Compound 11]
[5]
  racemization of separated enantiomers: prone to rapid racemization

## COC(=O)c1c(NC(=O)CC2SC(N)=NC2=O)sc2c1CCCC2 (centres unmarked) [Compound 20]
[3]
  increase in potency at GluN2D-containing receptors: 2 fold
